Data taken from US10308639B2, “Phosphatidylinositol 3-kinase inhibitors” (Gilead Sciences, Inc., priority 2014, dated 2019).
Read-outs that look alike come from different tables or passages of the source.

How the values were obtained:
Assay type in all cases: biochemical
[1] = biological target: T1, PI3Kδ (Homo sapiens, UniProt O00329); test: TR-FRET enzymatic activity assay, PI3Kδ; conditions: Table 2; TR-FRET, 2x Km ATP, 30 minutes at 25° C.
T1 construct: made in house

[2] = biological target: T2, PI3Kβ (Homo sapiens, UniProt P42338); test: TR-FRET enzymatic activity assay, PI3Kβ; conditions: Table 2; TR-FRET, 2x Km ATP, 30 minutes at 25° C.
T2 construct: made in house

[3] = biological target: T3, PI3Kγ (Homo sapiens, UniProt P48736); test: TR-FRET enzymatic activity assay, PI3Kγ; conditions: read-out: PI3Kγ IC50
T3 construct: made in house
How it was run: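 Enzymatic activity against the PI3K isoforms was measured using a time-resolved fluorescence resonance energy transfer (TR-FRET) assay.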

[4] = Table 2, TR-FRET, 2x Km ATP, 30 minutes at 25° C.

T3 sequence (P48736 whole entry): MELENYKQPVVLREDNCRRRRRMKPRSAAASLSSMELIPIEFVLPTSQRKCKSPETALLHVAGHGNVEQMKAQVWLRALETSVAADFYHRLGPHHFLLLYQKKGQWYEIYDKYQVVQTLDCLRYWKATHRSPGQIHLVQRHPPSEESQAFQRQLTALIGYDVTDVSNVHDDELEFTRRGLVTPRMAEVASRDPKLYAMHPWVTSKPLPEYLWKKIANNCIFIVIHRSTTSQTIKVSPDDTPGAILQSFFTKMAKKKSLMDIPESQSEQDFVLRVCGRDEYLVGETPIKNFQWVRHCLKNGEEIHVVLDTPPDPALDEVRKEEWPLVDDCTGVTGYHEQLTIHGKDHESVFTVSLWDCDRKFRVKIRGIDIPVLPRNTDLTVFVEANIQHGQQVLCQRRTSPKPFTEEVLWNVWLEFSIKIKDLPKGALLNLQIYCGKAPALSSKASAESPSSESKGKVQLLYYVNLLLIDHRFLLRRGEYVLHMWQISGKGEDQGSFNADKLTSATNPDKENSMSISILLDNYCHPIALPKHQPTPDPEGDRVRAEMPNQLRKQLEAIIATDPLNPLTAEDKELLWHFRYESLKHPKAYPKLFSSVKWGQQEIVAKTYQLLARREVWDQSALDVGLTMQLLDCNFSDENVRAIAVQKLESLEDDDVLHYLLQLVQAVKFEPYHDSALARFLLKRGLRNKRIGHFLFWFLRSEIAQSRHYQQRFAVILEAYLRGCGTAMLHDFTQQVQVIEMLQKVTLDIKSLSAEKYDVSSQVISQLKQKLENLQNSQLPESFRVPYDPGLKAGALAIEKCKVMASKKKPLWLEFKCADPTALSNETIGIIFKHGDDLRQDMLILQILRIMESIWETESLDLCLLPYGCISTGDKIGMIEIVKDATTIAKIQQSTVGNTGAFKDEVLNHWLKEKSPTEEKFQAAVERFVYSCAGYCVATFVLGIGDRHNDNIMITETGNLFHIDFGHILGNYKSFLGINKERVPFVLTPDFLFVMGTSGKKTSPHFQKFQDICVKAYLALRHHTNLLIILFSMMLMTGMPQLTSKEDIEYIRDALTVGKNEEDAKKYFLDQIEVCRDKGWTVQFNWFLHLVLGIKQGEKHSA
T1 sequence (O00329 whole entry): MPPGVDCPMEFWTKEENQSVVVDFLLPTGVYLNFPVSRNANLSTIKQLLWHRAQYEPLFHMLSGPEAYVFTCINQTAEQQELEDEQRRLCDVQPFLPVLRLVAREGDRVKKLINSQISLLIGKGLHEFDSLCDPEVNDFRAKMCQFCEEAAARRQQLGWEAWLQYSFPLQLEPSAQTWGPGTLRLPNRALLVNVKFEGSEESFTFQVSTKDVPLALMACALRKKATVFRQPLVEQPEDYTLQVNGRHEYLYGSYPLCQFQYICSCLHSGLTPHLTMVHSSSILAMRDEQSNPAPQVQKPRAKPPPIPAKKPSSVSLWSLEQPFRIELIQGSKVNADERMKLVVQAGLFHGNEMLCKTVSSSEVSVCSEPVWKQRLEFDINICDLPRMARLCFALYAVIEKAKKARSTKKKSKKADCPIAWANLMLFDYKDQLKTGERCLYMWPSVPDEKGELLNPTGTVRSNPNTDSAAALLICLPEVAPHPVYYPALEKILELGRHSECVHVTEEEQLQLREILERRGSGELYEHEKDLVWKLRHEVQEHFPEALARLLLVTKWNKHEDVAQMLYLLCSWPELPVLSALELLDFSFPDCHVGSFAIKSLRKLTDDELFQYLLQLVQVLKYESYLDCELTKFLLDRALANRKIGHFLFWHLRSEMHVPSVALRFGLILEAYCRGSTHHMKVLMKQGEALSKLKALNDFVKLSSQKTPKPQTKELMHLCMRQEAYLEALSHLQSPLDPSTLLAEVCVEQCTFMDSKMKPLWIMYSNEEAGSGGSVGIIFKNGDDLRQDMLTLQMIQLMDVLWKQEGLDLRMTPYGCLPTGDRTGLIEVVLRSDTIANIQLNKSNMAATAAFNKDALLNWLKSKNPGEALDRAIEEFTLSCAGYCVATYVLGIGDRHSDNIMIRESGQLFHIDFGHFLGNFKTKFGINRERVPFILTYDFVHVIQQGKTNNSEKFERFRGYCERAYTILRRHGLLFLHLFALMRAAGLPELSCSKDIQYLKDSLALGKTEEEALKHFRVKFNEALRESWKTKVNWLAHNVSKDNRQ
T1 sequence (P27986 whole entry partner): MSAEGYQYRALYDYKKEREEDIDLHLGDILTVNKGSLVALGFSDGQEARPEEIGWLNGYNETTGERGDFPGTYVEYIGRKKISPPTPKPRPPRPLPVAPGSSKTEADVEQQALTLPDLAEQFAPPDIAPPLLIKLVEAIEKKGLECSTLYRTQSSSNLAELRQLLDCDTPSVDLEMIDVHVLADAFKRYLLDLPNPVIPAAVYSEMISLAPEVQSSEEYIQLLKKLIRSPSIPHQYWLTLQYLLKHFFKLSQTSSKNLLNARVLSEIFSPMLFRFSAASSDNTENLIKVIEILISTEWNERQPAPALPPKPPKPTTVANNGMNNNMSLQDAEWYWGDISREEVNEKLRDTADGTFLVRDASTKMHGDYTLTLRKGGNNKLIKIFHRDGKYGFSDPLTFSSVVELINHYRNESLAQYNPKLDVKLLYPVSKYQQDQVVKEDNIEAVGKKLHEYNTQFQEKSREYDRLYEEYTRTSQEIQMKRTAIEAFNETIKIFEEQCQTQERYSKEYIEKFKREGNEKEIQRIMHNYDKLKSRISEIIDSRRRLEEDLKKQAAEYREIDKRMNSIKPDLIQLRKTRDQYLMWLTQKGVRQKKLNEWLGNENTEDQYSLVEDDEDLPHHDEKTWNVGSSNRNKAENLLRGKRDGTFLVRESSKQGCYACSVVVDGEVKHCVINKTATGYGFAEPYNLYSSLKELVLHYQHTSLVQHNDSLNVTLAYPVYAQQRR
T2 sequence (P42338 whole entry): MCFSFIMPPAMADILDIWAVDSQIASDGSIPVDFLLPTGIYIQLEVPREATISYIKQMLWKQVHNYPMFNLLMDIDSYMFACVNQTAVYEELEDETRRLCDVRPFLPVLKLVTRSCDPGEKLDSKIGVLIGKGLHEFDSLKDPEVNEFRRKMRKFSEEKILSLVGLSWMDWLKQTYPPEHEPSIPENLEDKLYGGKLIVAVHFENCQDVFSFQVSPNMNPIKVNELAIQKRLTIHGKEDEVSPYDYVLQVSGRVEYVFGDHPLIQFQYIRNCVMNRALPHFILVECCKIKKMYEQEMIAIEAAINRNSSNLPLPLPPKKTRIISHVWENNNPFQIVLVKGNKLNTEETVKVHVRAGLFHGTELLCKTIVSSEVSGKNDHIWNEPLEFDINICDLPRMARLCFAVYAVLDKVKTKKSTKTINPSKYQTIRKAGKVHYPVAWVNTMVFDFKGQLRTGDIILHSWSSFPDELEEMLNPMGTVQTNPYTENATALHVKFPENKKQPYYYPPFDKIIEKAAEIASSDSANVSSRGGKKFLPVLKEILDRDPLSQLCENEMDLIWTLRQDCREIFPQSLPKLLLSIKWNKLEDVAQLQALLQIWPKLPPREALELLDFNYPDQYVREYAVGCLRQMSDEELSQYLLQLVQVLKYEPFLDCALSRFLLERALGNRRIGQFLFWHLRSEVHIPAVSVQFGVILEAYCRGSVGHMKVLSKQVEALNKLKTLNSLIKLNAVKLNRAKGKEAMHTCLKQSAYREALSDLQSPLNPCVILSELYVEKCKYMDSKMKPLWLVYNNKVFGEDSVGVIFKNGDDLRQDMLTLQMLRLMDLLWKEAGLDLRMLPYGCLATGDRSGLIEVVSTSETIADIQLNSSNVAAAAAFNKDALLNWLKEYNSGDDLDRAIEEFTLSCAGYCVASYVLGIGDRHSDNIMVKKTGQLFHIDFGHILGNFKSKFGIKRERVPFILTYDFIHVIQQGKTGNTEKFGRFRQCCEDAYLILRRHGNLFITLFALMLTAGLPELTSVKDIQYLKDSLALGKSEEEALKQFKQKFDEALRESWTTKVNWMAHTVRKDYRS
T2 sequence (P27986 whole entry partner): as the sequence (P27986 whole entry partner) above

Structure (SMILES)	IC50 [1]	IC50 [2]	IC50 [3, 4]	IC50 [3]
C[C@H](Nc1ncnc2scnc12)c1nc2c(Cl)ccc(Cl)c2c(=O)n1-c1n[nH]cc1Br [Compound 85, (S)-3-(4-bromo-1H-pyrazol-3-yl)-5,8-dichloro-2-(1-(thiazolo[5,4-d]pyrimidin-7-ylamino)ethyl)quinazolin-4(3H)-one]	4 nM	170 nM	9000 nM	
CC[C@H](Nc1nc(Cl)nc2[nH]nc(C)c12)c1nc2c(Cl)ccc(Cl)c2c(=O)n1-c1cc[nH]n1 [Compound 88, (S)-5,8-dichloro-2-(1-((6-chloro-3-methyl-1H-pyrazolo[3,4-d]pyrimidin-4-yl)amino)propyl)-3-(1H-pyrazol-3-yl)quinazolin-4(3H)-one]	2700 nM	4200 nM		> 10000 nM
C[C@H](Nc1nc(Cl)nc2[nH]ncc12)c1nc2cccc(Cl)c2c(=O)n1-c1cc[nH]n1 [Compound 91, (S)-5-chloro-2-(1-((6-chloro-1H-pyrazolo[3,4-d]pyrimidin-4-yl)amino)ethyl)-3-(1H-pyrazol-3-yl)quinazolin-4(3H)-one]	2400 nM	3600 nM		> 10000 nM
CC[C@H](Nc1nc(N)nc(Cl)c1C#N)c1nc2c(C#N)cccc2c(=O)n1-c1cc[nH]n1 [Compound 96, (S)-2-(1-((2-amino-6-chloro-5-cyanopyrimidin-4-yl)amino)propyl)-4-oxo-3-(1H-pyrazol-3-yl)-3,4-dihydroquinazoline-8-carbonitrile]	12 nM	22 nM		> 10000 nM
CC[C@H](Nc1nc(N)nc(N)c1C#N)c1nc2cccc(C#N)c2c(=O)n1-c1cc[nH]n1 [Compound 97, (S)-2-(1-((2,6-diamino-5-cyanopyrimidin-4-yl)amino)propyl)-4-oxo-3-(1H-pyrazol-3-yl)-3,4-dihydroquinazoline-5-carbonitrile]	16 nM	17 nM	3700 nM	
CC[C@H](Nc1nc(N)nc(N)c1C#N)c1nc2cccc(Br)c2c(=O)n1-c1cc[nH]n1 [Compound 98, (S)-2,4-diamino-6-((1-(5-bromo-4-oxo-3-(1H-pyrazol-3-yl)-3,4-dihydroquinazolin-2-yl)propyl)amino)pyrimidine-5-carbonitrile]	0.6 nM	0.3 nM	110 nM	
CC[C@H](Nc1ncnc2scnc12)c1nc2cccc(Br)c2c(=O)n1-c1cn[nH]c1 [Compound 100, (S)-5-bromo-3-(1H-pyrazol-4-yl)-2-(1-(thiazolo[5,4-d]pyrimidin-7-ylamino)propyl)quinazolin-4(3H)-one]	4 nM	22 nM	280 nM	
CC[C@H](Nc1nc(N)nc(N)c1C#N)c1nc2cccc(C#N)c2c(=O)n1-c1cn[nH]c1 [Compound 102, (S)-2-(1-((2,6-diamino-5-cyanopyrimidin-4-yl)amino)propyl)-4-oxo-3-(1H-pyrazol-4-yl)-3,4-dihydroquinazoline-5-carbonitrile]	29 nM	82 nM	2500 nM	
C[C@H](Nc1ncnc2scnc12)c1nc2cccc(Cl)c2c(=O)n1-c1n[nH]cc1Br [Compound 104, (S)-3-(4-bromo-1H-pyrazol-3-yl)-5-chloro-2-(1-(thiazolo[5,4-d]pyrimidin-7-ylamino)ethyl)quinazolin-4(3H)-one]	2 nM	61 nM	500 nM	
N#Cc1c(N)nc(N)nc1N[C@@H](c1ccccc1)c1nc2cccc(Cl)c2c(=O)n1-c1cc[nH]n1 [Compound 105, (S)-2,4-diamino-6-(((5-chloro-4-oxo-3-(1H-pyrazol-3-yl)-3,4-dihydroquinazolin-2-yl)(phenyl)methyl)amino)pyrimidine-5-carbonitrile]	3 nM	5 nM	680 nM	
N#Cc1c(N)nc(N)nc1N[C@@H](c1ccccc1)c1nc2cccc(Cl)c2c(=O)n1-c1cn[nH]c1 [Compound 106, (S)-2,4-diamino-6-(((5-chloro-4-oxo-3-(1H-pyrazol-4-yl)-3,4-dihydroquinazolin-2-yl)(phenyl)methyl)amino)pyrimidine-5-carbonitrile]	2 nM	4 nM	210 nM	
Cc1nc(N)nc(N[C@@H](c2ccccc2)c2nc3cccc(Cl)c3c(=O)n2-c2cn[nH]c2)c1C#N [Compound 108, (S)-2-amino-4-(((5-chloro-4-oxo-3-(1H-pyrazol-4-yl)-3,4-dihydroquinazolin-2-yl)(phenyl)methyl)amino)-6-methylpyrimidine-5-carbonitrile]	1 nM	5 nM	150 nM	

Further compounds by falling IC50 [1], results first:

IC50 [1]	IC50 [2]	IC50 [3, 4]	IC50 [3]	Structure (SMILES)
1900 nM	3100 nM		> 10000 nM	Cc1n[nH]c2nc(Cl)nc(N[C@@H](C)c3nc4cccc(Cl)c4c(=O)n3-c3cc[nH]n3)c12 [Compound 89, (S)-5-chloro-2-(1-((6-chloro-3-methyl-1H-pyrazolo[3,4-d]pyrimidin-4-yl)amino)ethyl)-3-(1H-pyrazol-3-yl)quinazolin-4(3H)-one]
830 nM	1800 nM		> 10000 nM	C[C@H](Nc1nc(N)nc2[nH]ncc12)c1nc2cccc(Cl)c2c(=O)n1-c1cc[nH]n1 [Compound 90, (S)-2-(1-((6-amino-1H-pyrazolo[3,4-d]pyrimidin-4-yl)amino)ethyl)-5-chloro-3-(1H-pyrazol-3-yl)quinazolin-4(3H)-one]
300 nM	1700 nM		> 10000 nM	CC[C@H](Nc1nc(N)nc(N)c1Cl)c1nc2c(C#N)cccc2c(=O)n1-c1cn[nH]c1 [Compound 95, (S)-2-(1-((2,6-diamino-5-chloropyrimidin-4-yl)amino)propyl)-4-oxo-3-(1H-pyrazol-4-yl)-3,4-dihydroquinazoline-8-carbonitrile]
100 nM	620 nM	8700 nM		CC[C@H](Nc1ncnc2scnc12)c1nc2cccc(C#N)c2c(=O)n1-c1cn[nH]c1 [Compound 103, (S)-4-oxo-3-(1H-pyrazol-4-yl)-2-(1-(thiazolo[5,4-d]pyrimidin-7-ylamino)propyl)-3,4-dihydroquinazoline-5-carbonitrile]
19 nM	340 nM		> 10000 nM	CC[C@H](Nc1ncnc2scnc12)c1nc2c(Cl)ccc(Cl)c2c(=O)n1-c1n[nH]cc1Br [Compound 86, (S)-3-(4-bromo-1H-pyrazol-3-yl)-5,8-dichloro-2-(1-(thiazolo[5,4-d]pyrimidin-7-ylamino)propyl)quinazolin-4(3H)-one]
11 nM	49 nM	2400 nM		Nc1nc(N)c(Cl)c(N[C@@H](c2ccccc2)c2nc3cccc(Cl)c3c(=O)n2-c2cn[nH]c2)n1 [Compound 107, (S)-5-chloro-2-(((2,6-diamino-5-chloropyrimidin-4-yl)amino)(phenyl)methyl)-3-(1H-pyrazol-4-yl)quinazolin-4(3h)-one]
9 nM	16 nM	3800 nM		CC[C@H](Nc1nc(N)nc(C)c1C#N)c1nc2c(C#N)cccc2c(=O)n1-c1cn[nH]c1 [Compound 93, (S)-2-(1-((2-amino-5-cyano-6-methylpyrimidin-4-yl)amino)propyl)-4-oxo-3-(1H-pyrazol-4-yl)-3,4-dihydroquinazoline-8-carbonitrile]
8 nM	100 nM	1500 nM		CC[C@H](Nc1ncnc2ccc(Cl)nc12)c1nc2c(C#N)cccc2c(=O)n1-c1cn[nH]c1 [Compound 94, (S)-2-(1-((6-chloropyrido[3,2-d]pyrimidin-4-yl)amino)propyl)-4-oxo-3-(1H-pyrazol-4-yl)-3,4-dihydroquinazoline-8-carbonitrile]
6 nM	10 nM	3800 nM		C[C@H](Nc1nc(N)nc2[nH]nc(Br)c12)c1nc2cccc(Cl)c2c(=O)n1-c1cc[nH]n1 [Compound 92, (S)-2-(1-((6-amino-3-bromo-1H-pyrazolo[3,4-d]pyrimidin-4-yl)amino)ethyl)-5-chloro-3-(1H-pyrazol-3-yl)quinazolin-4(3H)-one]
1 nM	13 nM	240 nM		CC[C@H](Nc1nc(N)nc(N)c1C#N)c1nc2cccc(Cl)c2c(=O)n1-c1n[nH]cc1Br [Compound 83, (S)-2,4-diamino-6-((1-(3-(4-bromo-1H-pyrazol-3-yl)-5-chloro-4-oxo-3,4-dihydroquinazolin-2-yl)propyl)amino)pyrimidine-5-carbonitrile]
1 nM	0.8 nM	93 nM		CC[C@H](Nc1nc(N)nc(N)c1C#N)c1nc2cccc(Br)c2c(=O)n1-c1cn[nH]c1 [Compound 99, (S)-2,4-diamino-6-((1-(5-bromo-4-oxo-3-(1H-pyrazol-4-yl)-3,4-dihydroquinazolin-2-yl)propyl)amino)pyrimidine-5-carbonitrile]
0.5 nM	1 nM	960 nM		CC[C@H](Nc1ncnc2scnc12)c1nc2cccc(Br)c2c(=O)n1-c1cc[nH]n1 [Compound 101, (S)-5-bromo-3-(1H-pyrazol-3-yl)-2-(1-(thiazolo[5,4-d]pyrimidin-7-ylamino)propyl)quinazolin-4(3H)-one]
0.4 nM	8 nM	93 nM		C[C@H](Nc1nc(N)nc(N)c1C#N)c1nc2cccc(Cl)c2c(=O)n1-c1n[nH]cc1Br [Compound 84, (S)-2,4-diamino-6-((1-(3-(4-bromo-1H-pyrazol-3-yl)-5-chloro-4-oxo-3,4-dihydroquinazolin-2-yl)ethyl)amino)pyrimidine-5-carbonitrile]
0.4 nM	70 nM	8200 nM		CC[C@H](Nc1ncnc2scnc12)c1nc2cccc(S(C)(=O)=O)c2c(=O)n1-c1cc[nH]n1 [Compound 87, (S)-5-(methylsulfonyl)-3-(1H-pyrazol-3-yl)-2-(1-(thiazolo[5,4-d]pyrimidin-7-ylamino)propyl)quinazolin-4(3H)-one]
